Reference: patent US10874108B2, “Anti-microbial compositions” (5D HEALTH PROTECTION GROUP LTD, priority 2016, dated 2020)
Where “and” joins values, the source holds several entries; their conditions need not be identical. Equal values may be shown once.

Experiments:
[1] = test system: interleukin-6 (IL-6); assay: IL-6 ELISA, wounded biofilm-containing Labskin; format: cell-based; conditions: 100 ppm; vs S. aureus wound biofilm control
Excerpt: Enzyme-linked immunosorbent assay (ELISA) was used to assess the secreted levels of the inflammatory cytokine interleukin-6 (IL-6) according to previously published methods (Foster, A. M., Baliwag, J., Chen, C. S., Guzman, A. M., Stoll, S. W., Gudjonsson, J. E., Ward, N. L. & Johnston, A. 2014, IL-36 promotes myeloid cell infiltration, activation, and inflammatory activity in skin, The Journal of Immunology, 192, 6053-6061). […] The IL-6 levels were reduced further when compared to the S. aureus wound biofilm control.
ELISA was used to assess the levels of IL-6 in conditioned cell culture medium. Culture medium was changed at day 4, which accounts for the reduction in IL-6. […] Tests were performed in duplicate. Error bars indicate standard deviation.

[2] = test system: S. aureus 24-hour CDC biofilms; assay: Colonies after exposure of 24-hour CDC biofilms to EDTA compounds; format: cell-based
[3] = test system: cells; assay: Direct cytotoxicity, Neutral Red Uptake assay
[4] = test system: S. aureus wound biofilm; assay: Wound biofilm model (Labskin), histological examination; format: cell-based; conditions: 100 ppm; day 6; vs untreated S. aureus wound biofilm
[5] = test system: E. faecalis ATCC 29212 biofilm; assay: MBEC model (ASTM E2799), liquid formulas; format: cell-based; conditions: treated 24 hours
Description: (§1) The MBEC model (ASTM E2799) was used to assess the anti-biofilm efficacy of the liquid formulas. Biofilms were grown on polystyrene pegs in the MBEC model for either 24 or 48 hours before treatment. Using the liquid form of the EDTA complexes 24- and 48-hour biofilms were tested (Table 20).
(§2) 24- and 48-hour biofilms were formed using MBEC plate method and treated for 24 hours. Technical replicates n=3. Log reduction (LR) values show±standard error (SE) of LR value.

[6] = test system: S. aureus MRSA BAA-43 biofilm; assay: MBEC model (ASTM E2799), liquid formulas; format: cell-based; conditions: treated 24 hours
Description: as §1, §2

[7] = test system: S. epidermidis ATCC 35984 biofilm; assay: MBEC model (ASTM E2799), liquid formulas; format: cell-based; conditions: treated 24 hours
Description: as §1, §2

[8] = test system: P. aeruginosa NCTC 10662 biofilm; assay: MBEC model (ASTM E2799), liquid formulas; format: cell-based; conditions: treated 24 hours
Description: as §1, §2

[9] = test system: S. aureus ATCC 29213 biofilm; assay: MBEC model (ASTM E2799), liquid formulas; format: cell-based; conditions: treated 24 hours
Description: as §1, §2

[10] = Displacement of metals from EDTA complexes by physiological saline; format: physicochemical
Description: Adding saline to the suspension of Ag4(EDTA), the suspension quickly precipitated a solid (AgCl). The precipitate was filtered off, washed with deionized water 4 times; and then dried in a vacuum oven at 50° C. in a dark flask to avoid exposure to direct light.
The displacement experiment described above was repeated for compounds 1-4 to provide the percent of the displacement of silver, copper, zinc from the EDTA complexes by physiological saline.

[11] = test system: S. aureus biofilms; assay: CDC bioreactor biofilm LR/kill, EDTA compounds at 100 ppm silver; format: cell-based; conditions: 100 ppm of silver, exposed 24 hours
Description: (§3) Microbial cultures were exposed to compounds for 24 hours. Compounds were diluted according to 100 ppm of silver. Biofilms were formed using the CDC bioreactor. Samples were performed in triplicate.

[12] = test system: P. aeruginosa biofilms; assay: as above; format: cell-based; conditions: 100 ppm of silver, exposed 24 hours
Description: as §3

[13] = test system: P. aeruginosa 24-hour CDC biofilms; assay: Colonies after exposure of 24-hour CDC biofilms to EDTA compounds; format: cell-based
[14] = Elution from collagen films; format: physicochemical; conditions: for Elution in saline (ppm) EDTA / Elution in saline (ppm) Zinc / Elution in water (ppm) EDTA / Elution in saline (ppm) Silver / Elution in water (ppm) Silver / Elution in water (ppm) Zinc: collagen film; for Overall zinc eluted out from collagen films: 5 days; for In total EDTA eluted out from collagen films: over 5 days; for In total silver eluted out from collagen films: over the 5 days
Description: The EDTA compounds 1-4 were added to collagen films and then investigated for elution of these complexes. The collagen film was prepared from a solution of oxidized bovine atelocollagen type I, glycerol and EDTA compounds 1-4. 1.8 ml 10% glycerol solution was added into 20 ml oxidized bovine atelocollagen type I solution. 5 ml EDTA complex were added into the solution with vigorous stirring, and the mixture was adjusted to pH=7.0 by dropwise addition of 5% NaOH. The final solution was adjusted to 30 ml by ultrapure water and was cast into PVC mould. The solution was dried in a fume hood overnight. All the collagen films, impregnated with the EDTA complexes were immersed in water, saline or simulated wound fluid.

[15] = test system: P. aeruginosa biofilms; assay: MBEC plate 48-hour biofilm, liquid EDTA-Ag2-Zn compound; format: cell-based
Excerpt: Biofilms were formed using the MBEC plate method. Log reduction (LR) values are expressed with standard error. N.D (not determined) is stated when no colonies were detected upon enumeration.

[16] = day 1, listed as EDTA compound 4

O=C([O-])CN(CCN(CC(=O)[O-])CC(=O)[O-])CC(=O)[O-].[Ag+].[Ag+].[Zn+2] [Compound 4, Ag2ZnEDTA]
secreted IL-6 (inflammatory marker) [1]: significant reduction
Number of colonies detected [2]: 0 Cfu/ml
Interpretation ([3]; 25 ppm): Cytotoxic (if the percentage viability is less than 70% of the untreated control, then the substance is considered cytotoxic)
Percentage of Control/Percentage Viability (%) ([3]; 25 ppm): 62.67 ± 20.39%
Interpretation ([3]; 50 ppm): Non cytotoxic (if the percentage viability is less than 70% of the untreated control, then the substance is considered cytotoxic)
Percentage of Control/Percentage Viability (%) ([3]; 50 ppm): 72.93% and 72.93 ± 12.90%
Interpretation ([3]; 100 ppm): Cytotoxic (if the percentage viability is less than 70% of the untreated control, then the substance is considered cytotoxic)
Percentage of Control/Percentage Viability (%) ([3]; 100 ppm): 56.41 ± 1.83%
amount of microorganisms within the tissues (histology) [4]: reduced amount of microorganisms within the tissues
Kill % ([5]; 50 ppm, 24-Hour Biofilm): 100%
LR ([5]; 50 ppm, 24-Hour Biofilm): 6.35
Kill % ([5]; 50 ppm, 48-Hour Biofilm): 100%
LR ([5]; 50 ppm, 48-Hour Biofilm): 6.40
Kill % ([5]; 100 ppm, 24-Hour Biofilm): 100%
LR ([5]; 100 ppm, 24-Hour Biofilm): 6.35
Kill % ([5]; 100 ppm, 48-Hour Biofilm): 100%
LR ([5]; 100 ppm, 48-Hour Biofilm): 6.40
Kill % ([6]; 50 ppm, 24-Hour Biofilm): 100%
LR ([6]; 50 ppm, 24-Hour Biofilm): 5.40
Kill % ([6]; 50 ppm, 48-Hour Biofilm): 100%
LR ([6]; 50 ppm, 48-Hour Biofilm): 6.43
Kill % ([6]; 100 ppm, 24-Hour Biofilm): 100%
LR ([6]; 100 ppm, 24-Hour Biofilm): 5.40
Kill % ([6]; 100 ppm, 48-Hour Biofilm): 100%
LR ([6]; 100 ppm, 48-Hour Biofilm): 6.43
Kill % ([7]; 50 ppm, 24-Hour Biofilm): 100%
LR ([7]; 50 ppm, 24-Hour Biofilm): 6.09
Kill % ([7]; 50 ppm, 48-Hour Biofilm): 100%
LR ([7]; 50 ppm, 48-Hour Biofilm): 6.41
Kill % ([7]; 100 ppm, 24-Hour Biofilm): 100%
LR ([7]; 100 ppm, 24-Hour Biofilm): 6.09
Kill % ([7]; 100 ppm, 48-Hour Biofilm): 100%
LR ([7]; 100 ppm, 48-Hour Biofilm): 6.41
Kill % ([8]; 50 ppm, 24-Hour Biofilm): 100%
LR ([8]; 50 ppm, 24-Hour Biofilm): 7.44
Kill % ([8]; 50 ppm, 48-Hour Biofilm): 100%
LR ([8]; 50 ppm, 48-Hour Biofilm): 8.44
Kill % ([8]; 100 ppm, 24-Hour Biofilm): 100%
LR ([8]; 100 ppm, 24-Hour Biofilm): 7.44
Kill % ([8]; 100 ppm, 48-Hour Biofilm): 100%
LR ([8]; 100 ppm, 48-Hour Biofilm): 8.44
Kill % ([9]; 50 ppm, 24-Hour Biofilm): 100%
LR ([9]; 50 ppm, 24-Hour Biofilm): 6.44
Kill % ([9]; 50 ppm, 48-Hour Biofilm): 100%
LR ([9]; 50 ppm, 48-Hour Biofilm): 6.50
Kill % ([9]; 100 ppm, 24-Hour Biofilm): 100%
LR ([9]; 100 ppm, 24-Hour Biofilm): 6.44
Kill % ([9]; 100 ppm, 48-Hour Biofilm): 100%
LR ([9]; 100 ppm, 48-Hour Biofilm): 6.50
Displacement (%) Silver [10]: 80.77 ± 6.45%
Displacement (%) Zinc [10]: 38.86 ± 9.01 %
Kill % [11]: 99.98%
LR [11]: 3.73 ± 0.18
Kill % [12]: 99.95%
LR [12]: 3.34 ± 0.11
Number of colonies detected [13]: 0 Cfu/ml
Elution in saline (ppm) EDTA ([14]; day 1): 9.75 ± 1.31 ppm
Elution in saline (ppm) Zinc ([14]; day 1): 5.65 ± 0.06 ppm
Elution in water (ppm) EDTA ([14]; day 1): 9.25 ± 0.90 ppm
Elution in saline (ppm) Silver [14, 16]: 20.34±1.42 ppm
Elution in water (ppm) Silver [14, 16]: 19.08±0.92 ppm
Elution in water (ppm) Zinc [14, 16]: 9.86±0.39 ppm
Elution in saline (ppm) EDTA ([14]; day 2): 0.47 ± 0.35 ppm
Elution in saline (ppm) Silver ([14]; day 2): 14.49 ± 2.63 ppm
Elution in saline (ppm) Zinc ([14]; day 2): 6.26 ± 0.67 ppm
Elution in water (ppm) EDTA ([14]; day 2): 0.96 ± 0.64 ppm
Elution in water (ppm) Silver ([14]; day 2): 12.61 ± 1.04 ppm
Elution in water (ppm) Zinc ([14]; day 2): 9.60 ± 0.33 ppm
Elution in saline (ppm) EDTA ([14]; day 3): 0.40 ± 0.08 ppm
Elution in saline (ppm) Silver ([14]; day 3): 15.23 ± 2.41 ppm
Elution in saline (ppm) Zinc ([14]; day 3): 6.44 ± 0.60 ppm
Elution in water (ppm) EDTA ([14]; day 3): 1.53 ± 1.08 ppm
Elution in water (ppm) Silver ([14]; day 3): 10.64 ± 1.19 ppm
Elution in water (ppm) Zinc ([14]; day 3): 8.08 ± 0.70 ppm
Elution in saline (ppm) EDTA ([14]; day 4): −0.13 ± 0.90 ppm
Elution in saline (ppm) Silver ([14]; day 4): 12.93 ± 2.10 ppm
Elution in saline (ppm) Zinc ([14]; day 4): 5.58 ± 0.33 ppm
Elution in water (ppm) EDTA ([14]; day 4): 0.24 ± 0.28 ppm
Elution in water (ppm) Silver ([14]; day 4): 9.56 ± 0.79 ppm
Elution in water (ppm) Zinc ([14]; day 4): 6.24 ± 0.40 ppm
Elution in saline (ppm) EDTA ([14]; day 5): −0.07 ± 0.93 ppm
Elution in saline (ppm) Silver ([14]; day 5): 13.30 ± 2.14 ppm
Elution in saline (ppm) Zinc ([14]; day 5): 5.18 ± 0.15 ppm
Elution in water (ppm) EDTA ([14]; day 5): 1.17 ± 1.31 ppm
Elution in water (ppm) Silver ([14]; day 5): 10.35 ± 0.73 ppm
Elution in water (ppm) Zinc ([14]; day 5): 6.53 ± 0.23 ppm
Overall zinc eluted out from collagen films ([14]; in saline): 27.36%
In total EDTA eluted out from collagen films ([14]; in saline): 13.44%
In total silver eluted out from collagen films ([14]; in saline): 66.22%
Overall zinc eluted out from collagen films ([14]; in water): 37.89%
In total EDTA eluted out from collagen films ([14]; in water): 16.95%
In total silver eluted out from collagen films ([14]; in water): 54.03%
% Kill ([15]; 62.5 ppm, treatment 1 hours): 100%
% Kill ([15]; 62.5 ppm, treatment 24 hours): 100%
% Kill ([15]; 125 ppm, treatment 1 hours): 100%
% Kill ([15]; 125 ppm, treatment 24 hours): 100%
% Kill ([15]; 250 ppm, treatment 1 hours): 100%
% Kill ([15]; 250 ppm, treatment 24 hours): 100%
% Kill ([15]; 500 ppm, treatment 1 hours): 100%
% Kill ([15]; 500 ppm, treatment 24 hours): 100%
% Kill ([15]; 1000 ppm, treatment 1 hours): 100%
% Kill ([15]; 1000 ppm, treatment 24 hours): 100%
